In patent US12357605B2, “Muscle building agent” (KANEKA CORPORATION, priority 2019, dated 2025):

Test system: muscle satellite cells
Test: Evaluation of muscle satellite cell activating effect (ratio of BrdU positive cells)
Type: cell-based, SD rat
Conditions: for Ratio of activated muscle satellite cells, Mean: 24 hours culture, BrdU positive cells / total cells, solvent control 41.3%; for muscle satellite cell activating effect: in comparison with the solvent control, result in words
Protocol: The muscle satellite cells activation effect can be evaluated by, for example, the following in vitro test. Specifically, muscle satellite cells are isolated from an animal and cultured in a culture medium containing test sample for 24 hours. Then, bromodeoxyuridine (BrdU) is added thereto at the final concentration of 10 μM, and the mixture is incubated for 2 hours. Next, the muscle satellite cells are fixed at 4° C. for 10 minutes with ice-cooled methanol containing 0.1% H2O2 and are subjected to DNA denaturation treatment at 37° C. for 1 hour using 2 N hydrochloric acid, and BrdU positive cells are detected by using anti-BrdU antibody as a primary antibody, HRP-conjugated anti-mouse IgG antibody as a secondary antibody, and coloring with diaminobenzidine (DAB). The ratio of BrdU positive cells to the total number of cells is calculated as the ratio of activated muscle satellite cells. It is judged with respect to the ratio of activated muscle satellite cells of the muscle building agent according to the present invention that muscle satellite cells are activated in the case where a ratio of activated muscle satellite cells is increased by a treatment with a test substrate in comparison with a solvent control. An increase to a solvent control is preferably 2% or more, more preferably 3% or more and even more preferably 5% or more.
Muscle tissues were isolated from the upper hindlimb and back of 6-month old male SD rat (from Japan SLC). The muscle tissues were trimmed of adipose and connective tissue, minced, and treated with PBS containing 1.25 mg/mL protease (Sigma) at 37° C. for 1 hour. After muscle fiber fragments and tissue debris were removed by centrifugation, the cells were seeded on plates coated with polylysine (Sigma) and fibronectin (Sigma). After the cells were cultured in 5% CO2 atmosphere at 37° C. for 24 hours, muscle satellite cells were isolated by washing with PBS. DMEM (“Dulbecco's Modified Eagle Medium”, Thermo Fisher Scientific) containing 10% horse serum (Thermo Fisher Scientific) was used as a culture media. The culture media is hereinafter abbreviated as “10% HS-DMEM”.
The casuarinin prepared in Example 1 or the stachyurin prepared in Example 2 was dissolved in water and added in 10% HS-DMEM to prepare the 10% HS-DMEM containing casuarinin or stachyurin. The culture medium of the isolated muscle satellite cells were exchanged for the 10% HS-DMEM containing casuarinin or stachyurin, and the muscle satellite cells were cultured for 24 hours. Casuarinin concentrations were adjusted to 0.01 to 1.1 μM (13 to 1000 ng/mL), and stachyurin concentrations were adjusted to 0.09 to 0.4 μM (83 to 333 ng/mL). As a solvent control, 10% HS-DMEM was used.
Bromodeoxyuridine (BrdU, Sigma) was added to the culture medium at the final concentration of 10 μM, and the mixture was incubated for 2 hours. Then, the muscle satellite cells were fixed at 4° C. for 10 minutes with ice-cooled methanol containing 0.1% H2O2 and were further subjected to DNA denaturation treatment using 2 N hydrochloric acid at 37° C. for 1 hour, and BrdU positive cells were detected by using anti-BrdU antibody (Sigma) as a primary antibody, HRP-conjugated anti-mouse IgG antibody (Sigma) as a secondary antibody, and coloring with diaminobenzidine (DAB, Sigma). The ratio of BrdU positive cells to the total number of cells was calculated as the ratio of activated muscle satellite cells. The experiments were performed in 12 independent cell cultures in the case of the solvent control, and in 3 independent cultures in each concentration in the case of casuarinin or stachyurin. Data were expressed as the mean and standard deviation. The “*” in FIGS. 1 and 2 represents that the difference to the solvent control was statistically significant at p<0.05 by Dunnett's test. […]

Row | SMILES | Ratio of activated muscle satellite cells, Mean (100 ng/mL) [%] | also measured
1 | O=C1OC[C@H]2OC(=O)c3cc(O)c(O)c(O)c3-c3c(O)c(O)c(O)c4c3C(=O)O[C@H]([C@H]3OC(=O)c5c-4c(O)c(O)c(O)c5[C@H]3O)[C@@H]2OC(=O)c2cc(O)c(O)c(O)c2-c2c1cc(O)c(O)c2O [Castalagin, castalagin, reference compound] | 39.4 | –
2 | O=C(O[C@@H]1OC2COC(=O)c3cc(O)c(O)c(O)c3-c3c(cc(O)c(O)c3O)C(=O)O[C@H]2[C@@H]2OC(=O)c3cc(O)c(O)c(O)c3-c3c(cc(O)c(O)c3O)C(=O)OC12)c1cc(O)c(O)c(O)c1 (stereo partly drawn) [Casuarictin, casuarictin, reference compound] | 39.2 | –
3 | O=C(O[C@@H]1COC(=O)c2cc(O)c(O)c(O)c2-c2c(cc(O)c(O)c2O)C(=O)O[C@H]1[C@@H]1OC(=O)c2cc(O)c(O)c(O)c2-c2c(O)c(O)c(O)c3c2C(=O)O[C@H]1C3O)c1cc(O)c(O)c(O)c1 (stereo partly drawn) [Casuarinin, casuarinin] | 50.8 | Ratio of activated muscle satellite cells, Mean (0.01 μM (13 ng/mL)): 43.3%; Ratio of activated muscle satellite cells, Mean (0.03 μM (25 ng/mL)): 44.9%; Ratio of activated muscle satellite cells, Mean (0.05 μM (50 ng/mL)): 51.3%; Ratio of activated muscle satellite cells, Mean (0.3 μM (250 ng/mL)): 48.8%; Ratio of activated muscle satellite cells, Mean (1.1 μM (1000 ng/mL)): 43.7%; muscle satellite cell activating effect: significant muscle satellite cell activating effect
4 | Oc1cc(O)c2c(c1)O[C@@H](c1ccc(O)c(O)c1)[C@H](O)C2 [Catechin, catechin, reference compound] | 42.1 | –
5 | O=c1oc2c(O)c(O)cc3c(=O)oc4c(O)c(O)cc1c4c23 [Ellagic acid, ellagic acid, reference compound] | 38.3 | –
6 | O=C(O)c1cc(O)c(O)c(O)c1 [Gallic acid, gallic acid, reference compound] | 37.8 | –
7 | O=c1c(O[C@@H]2O[C@H](CO)[C@H](O)[C@H](O)[C@H]2O)c(-c2ccc(O)c(O)c2)oc2cc(O)cc(O)c12 [Hyperin, hyperin, reference compound] | 38.2 | –
8 | C[C@@H]1OC(Oc2c(-c3cc(O)c(O)c(O)c3)oc3cc(O)cc(O)c3c2=O)[C@H](O)[C@H](O)[C@H]1O (stereo partly drawn) [Myricitrin, myricitrin, reference compound] | 41.8 | –
9 | C[C@@H]1O[C@@H](Oc2c(-c3ccc(O)c(O)c3)oc3cc(O)cc(O)c3c2=O)[C@H](O)[C@H](O)[C@H]1O [Quercitrin, quercitrin, reference compound] | 40.0 | –
10 | O=C(O[C@@H]1COC(=O)c2cc(O)c(O)c(O)c2-c2c(cc(O)c(O)c2O)C(=O)O[C@H]1[C@@H]1OC(=O)c2cc(O)c(O)c(O)c2-c2c(O)c(O)c(O)c3c2C(=O)O[C@H]1[C@H]3O)c1cc(O)c(O)c(O)c1 [Stachyurin, stachyurin] | – | Ratio of activated muscle satellite cells, Mean (0.09 μM (83 ng/mL)): 44.7%; Ratio of activated muscle satellite cells, Mean (0.4 μM (333 ng/mL)): 48.5%; muscle satellite cell activating effect: significant muscle satellite cell activating effect
